Measurements taken from US20170281622A1, “DERIVATIVES OF MACROCYCLIC N-ARYL-2-AMINO-4-ARYL-PYRIMIDINE POLYETHERS AS INHIBITORS OF FTL3 AND JAK” (PIERRE FABRE MEDICAMENT, priority 2014, published 2017).
Substitutions are numbered along the chain they refer to.

Assays:
[1] = target: T1, JAK2 (Homo sapiens, UniProt O60674); assay: LanthaScreen TR-FRET binding test, JAK2; settings: recombinant enzyme 15 nM, kinase tracer 236 150 nM, 25° C., 1 hour
T1 construct: purchased Life Technologies FV4210
Method: (§1) FLT3 (#PV3182), JAK2 (#FV4210) and JAK3 (#PV3855) recombinant enzymes were purchased from Life Technologies, FLT3-ITD (#0778-0000-1) and FLT3^D835Y (#14-610) proteins were purchased from ProQinase and Merck Millipore, respectively. All the tests were carried out in 384-well plates. The principle of these binding tests is based on the LanthaScreen® TR-FRET methodology from Life Technologies.
(§2) JAK tests. The reaction mixture (15 μL total volume) contains the following compounds: 15 nM JAK2 or JAK3, 150 nM kinase tracer 236 (Life Technologies, #PV5592) for JAK2 or 3 nM for JAK3 and 6 nM LanthaScreen® anti-GST antibody coupled to a europium chelate (Life Technologies, #PV5594) for both enzymes.
(§3) The compounds are evaluated at 8 different concentrations prepared by making dilutions from a starting 10 mM stock solution in dimethylsulfoxide (DMSO) (Sigma, #D8418). The final DMSO concentration in the test is 1%. The reaction is carried out at 25° C. for 1 hour and detected on the EnVision® reader (Perkin Elmer) according to the recommendations of the supplier, Life Technologies.
(§4) The results are presented (Table 1) as the concentration values of the compound at which 50% of the kinase activity is inhibited, IC50 (μM), generated using the PRISM software (GraphPad).

[2] = tested on: MOLM-13; assay: Antiproliferative activity, MOLM-13 cells (ATPLite); format: cell-based; settings: Homo sapiens; MOLM-13 cell line (acute myeloid leukemia, FLT3-ITD), 72 h, cell viability by ATPLite; read-out: EC50 MOLM13
Method: (§5) The characteristics of the cell lines used are as follows (Table 2).
(§6) MV4-11 and MOLM-13 cell lines are cultured in the culture medium specified in Table 2 above and according to the supplier's recommendations. The tests are carried out in 96-well plates. The cells are divided in two at D0. At D1, they are seeded and treated with the compounds at various concentrations and incubated for 72 h at 37° C. and 5% CO2. The dilution of the compounds from stock solutions in DMSO (Sigma, #D8418) was made semi-logarithmically for a final concentration in the culture medium of 0.1%. At day 4, cell viability is evaluated by assaying the ATP released by the living cells using the ATPLite® kit (Perkin Elmer, #6016947). The EC50 values (concentration of the compound necessary to obtain 50% of the maximum effect) are calculated using curve-fitting software.

[3] = target: T2, FLT3 (Homo sapiens, UniProt P36888); assay: LanthaScreen TR-FRET binding test, FLT3; settings: recombinant enzyme 15 nM, kinase tracer 236 3 nM, 25° C., 1 hour
T2 construct: purchased Life Technologies PV3182
T2 sequence (P36888 27-993): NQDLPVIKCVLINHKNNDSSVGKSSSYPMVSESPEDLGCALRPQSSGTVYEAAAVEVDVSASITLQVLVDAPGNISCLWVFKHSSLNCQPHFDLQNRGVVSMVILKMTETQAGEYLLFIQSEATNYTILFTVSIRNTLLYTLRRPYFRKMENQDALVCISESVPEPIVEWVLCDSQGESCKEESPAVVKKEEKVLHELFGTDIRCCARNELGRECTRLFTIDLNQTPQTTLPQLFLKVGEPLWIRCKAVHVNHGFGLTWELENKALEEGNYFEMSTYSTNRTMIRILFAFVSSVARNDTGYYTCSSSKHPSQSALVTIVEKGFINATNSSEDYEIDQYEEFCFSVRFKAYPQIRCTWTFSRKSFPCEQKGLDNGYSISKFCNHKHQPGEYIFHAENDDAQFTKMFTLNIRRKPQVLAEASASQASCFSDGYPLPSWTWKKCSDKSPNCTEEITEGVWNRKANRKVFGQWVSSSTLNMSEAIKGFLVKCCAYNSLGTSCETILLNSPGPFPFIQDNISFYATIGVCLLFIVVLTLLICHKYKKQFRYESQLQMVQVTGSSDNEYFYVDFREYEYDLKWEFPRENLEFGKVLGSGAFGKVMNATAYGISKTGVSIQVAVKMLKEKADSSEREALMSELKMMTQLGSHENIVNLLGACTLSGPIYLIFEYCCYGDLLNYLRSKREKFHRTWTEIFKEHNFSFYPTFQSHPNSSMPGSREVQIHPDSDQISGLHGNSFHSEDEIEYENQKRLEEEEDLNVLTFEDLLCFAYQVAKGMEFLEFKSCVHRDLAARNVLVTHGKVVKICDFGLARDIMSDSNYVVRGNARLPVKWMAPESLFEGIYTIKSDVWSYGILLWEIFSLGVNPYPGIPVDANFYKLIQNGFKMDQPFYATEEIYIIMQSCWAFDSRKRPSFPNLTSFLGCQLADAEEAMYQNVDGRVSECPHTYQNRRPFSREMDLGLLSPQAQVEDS
Method: as §1
(§7) FLT3 tests. The reaction mixture (15 μL total volume) contains the following compounds: 15 nM FLT3, FLT3-ITD or FLT3^D835Y, 3 nM kinase tracer 236 (Life Technologies, #PV5592) and 6 nM LanthaScreen® anti-GST antibody coupled to a europium chelate (Life Technologies, #PV5594) for FLT3-ITD and FLT3^D835Y or 6 nM LanthaScreen® anti-His antibody coupled to a europium chelate (Life Technologies, #PV5596) for FLT3.
as §3, §4

[4] = tested on: MV4-11; assay: Antiproliferative activity, MV4-11 cells (ATPLite); format: cell-based; settings: Homo sapiens; MV4-11 cell line (acute myeloid leukemia, FLT3-ITD), 72 h, cell viability by ATPLite; read-out: EC50 MV411
Method: as §5, §6

[5] = target: T3, FLT3^D835Y (Homo sapiens, UniProt P36888, D835Y); assay: LanthaScreen TR-FRET binding test, FLT3 D835Y; settings: 15 nM protein, kinase tracer 236 3 nM, 25° C., 1 hour
T3 construct: purchased Merck Millipore 14-610
T3 sequence (P36888 27-993 D835Y): T2 sequence (P36888 27-993) with D809Y
Method: as §1, §7, §3, §4

[6] = target: T4, FLT3-ITD (Homo sapiens, UniProt P36888); assay: LanthaScreen TR-FRET binding test, FLT3-ITD; settings: 15 nM protein, kinase tracer 236 3 nM, 25° C., 1 hour
T4 construct: fused on or other part: GST tag, inferred from detection with the anti-GST europium antibody
T4 sequence (P36888 1-993): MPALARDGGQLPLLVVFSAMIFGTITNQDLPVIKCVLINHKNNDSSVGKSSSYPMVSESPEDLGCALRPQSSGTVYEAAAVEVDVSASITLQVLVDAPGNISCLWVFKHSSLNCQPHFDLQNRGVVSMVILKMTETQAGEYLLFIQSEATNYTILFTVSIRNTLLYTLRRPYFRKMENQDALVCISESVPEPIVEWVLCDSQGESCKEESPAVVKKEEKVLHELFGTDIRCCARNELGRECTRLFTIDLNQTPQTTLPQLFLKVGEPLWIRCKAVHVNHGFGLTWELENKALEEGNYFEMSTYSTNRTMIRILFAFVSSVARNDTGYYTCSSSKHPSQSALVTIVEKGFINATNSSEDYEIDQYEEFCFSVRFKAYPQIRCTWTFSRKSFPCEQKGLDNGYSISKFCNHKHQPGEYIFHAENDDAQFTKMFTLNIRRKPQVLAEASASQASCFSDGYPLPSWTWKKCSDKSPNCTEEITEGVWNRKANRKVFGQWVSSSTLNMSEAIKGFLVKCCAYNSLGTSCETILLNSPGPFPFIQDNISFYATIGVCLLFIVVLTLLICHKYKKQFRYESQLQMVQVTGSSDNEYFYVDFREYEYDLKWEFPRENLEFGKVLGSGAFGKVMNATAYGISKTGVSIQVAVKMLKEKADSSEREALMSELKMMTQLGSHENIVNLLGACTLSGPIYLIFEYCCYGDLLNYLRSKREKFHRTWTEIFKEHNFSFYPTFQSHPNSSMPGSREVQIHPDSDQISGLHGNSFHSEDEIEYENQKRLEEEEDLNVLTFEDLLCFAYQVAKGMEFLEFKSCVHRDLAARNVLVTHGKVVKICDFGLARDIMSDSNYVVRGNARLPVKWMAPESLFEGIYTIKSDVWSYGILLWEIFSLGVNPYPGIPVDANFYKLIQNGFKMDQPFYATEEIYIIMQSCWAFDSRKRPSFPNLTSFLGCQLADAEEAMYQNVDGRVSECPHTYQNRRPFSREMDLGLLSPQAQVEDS
Method: as §1, §7, §3, §4

[7] = target: T5, JAK3 (Homo sapiens, UniProt P52333); assay: LanthaScreen TR-FRET binding test, JAK3; settings: recombinant enzyme 15 nM, kinase tracer 236 3 nM, 25° C., 1 hour
T5 construct: purchased Life Technologies PV3855
T5 sequence (P52333 1-1124): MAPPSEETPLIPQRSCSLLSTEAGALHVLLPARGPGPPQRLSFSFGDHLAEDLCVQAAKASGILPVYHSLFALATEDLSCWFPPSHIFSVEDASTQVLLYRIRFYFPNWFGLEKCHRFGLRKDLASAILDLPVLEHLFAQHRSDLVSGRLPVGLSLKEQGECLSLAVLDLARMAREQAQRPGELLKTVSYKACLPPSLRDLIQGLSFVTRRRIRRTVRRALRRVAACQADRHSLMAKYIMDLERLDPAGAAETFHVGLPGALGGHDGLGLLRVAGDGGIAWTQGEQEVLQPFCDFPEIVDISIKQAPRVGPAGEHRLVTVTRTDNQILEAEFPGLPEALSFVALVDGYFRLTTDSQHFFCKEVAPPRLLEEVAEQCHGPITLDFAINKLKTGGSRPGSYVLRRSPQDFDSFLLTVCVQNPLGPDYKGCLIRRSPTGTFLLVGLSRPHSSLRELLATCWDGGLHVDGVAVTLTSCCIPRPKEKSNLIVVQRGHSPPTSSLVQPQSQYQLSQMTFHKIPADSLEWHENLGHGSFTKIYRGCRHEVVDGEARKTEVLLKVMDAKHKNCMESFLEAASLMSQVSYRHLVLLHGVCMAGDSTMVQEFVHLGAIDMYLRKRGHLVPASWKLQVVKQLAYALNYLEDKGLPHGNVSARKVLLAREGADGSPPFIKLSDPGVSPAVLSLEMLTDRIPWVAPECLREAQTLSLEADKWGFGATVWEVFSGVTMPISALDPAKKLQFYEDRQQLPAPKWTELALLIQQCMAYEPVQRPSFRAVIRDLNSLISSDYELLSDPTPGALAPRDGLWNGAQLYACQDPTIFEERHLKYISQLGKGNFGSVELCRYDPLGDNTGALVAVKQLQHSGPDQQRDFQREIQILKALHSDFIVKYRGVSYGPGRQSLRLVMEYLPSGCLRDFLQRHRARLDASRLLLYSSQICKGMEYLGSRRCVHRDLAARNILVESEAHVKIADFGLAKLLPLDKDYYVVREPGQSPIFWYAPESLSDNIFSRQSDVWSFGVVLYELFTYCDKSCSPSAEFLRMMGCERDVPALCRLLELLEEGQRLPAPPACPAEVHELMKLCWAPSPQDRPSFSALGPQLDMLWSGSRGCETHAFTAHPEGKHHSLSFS
Method: as §1, §2, §3, §4

T1 sequence (O60674 whole entry): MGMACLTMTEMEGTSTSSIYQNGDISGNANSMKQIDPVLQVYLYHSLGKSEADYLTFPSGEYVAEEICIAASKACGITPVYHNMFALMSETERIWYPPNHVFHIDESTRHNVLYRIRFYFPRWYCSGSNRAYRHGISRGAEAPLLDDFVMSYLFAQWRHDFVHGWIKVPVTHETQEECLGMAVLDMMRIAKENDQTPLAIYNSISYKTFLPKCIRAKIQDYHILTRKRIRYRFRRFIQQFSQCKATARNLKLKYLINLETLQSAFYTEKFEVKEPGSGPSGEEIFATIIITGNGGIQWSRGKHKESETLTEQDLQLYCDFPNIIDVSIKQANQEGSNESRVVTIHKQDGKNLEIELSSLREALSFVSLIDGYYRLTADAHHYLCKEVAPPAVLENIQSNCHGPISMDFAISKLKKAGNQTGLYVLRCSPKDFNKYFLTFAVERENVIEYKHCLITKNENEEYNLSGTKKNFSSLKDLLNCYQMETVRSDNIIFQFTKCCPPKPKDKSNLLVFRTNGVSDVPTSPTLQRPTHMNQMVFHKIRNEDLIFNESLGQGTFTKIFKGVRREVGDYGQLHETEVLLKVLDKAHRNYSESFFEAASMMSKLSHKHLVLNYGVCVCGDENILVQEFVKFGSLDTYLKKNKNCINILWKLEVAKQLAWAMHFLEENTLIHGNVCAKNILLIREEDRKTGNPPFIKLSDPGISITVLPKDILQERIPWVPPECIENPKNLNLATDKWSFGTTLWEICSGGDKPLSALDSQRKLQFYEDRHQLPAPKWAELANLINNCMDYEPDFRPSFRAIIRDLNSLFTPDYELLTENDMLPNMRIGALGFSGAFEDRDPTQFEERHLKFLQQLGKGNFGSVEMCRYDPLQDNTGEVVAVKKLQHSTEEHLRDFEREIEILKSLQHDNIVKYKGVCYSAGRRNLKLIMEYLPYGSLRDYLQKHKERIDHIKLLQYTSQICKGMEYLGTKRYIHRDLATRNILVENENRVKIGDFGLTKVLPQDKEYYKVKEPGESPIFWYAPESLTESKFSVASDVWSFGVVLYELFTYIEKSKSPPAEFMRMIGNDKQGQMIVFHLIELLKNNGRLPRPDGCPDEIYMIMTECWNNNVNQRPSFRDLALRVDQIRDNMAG

IC50 [1] [µM]	EC50 [2] [µM]	IC50 [3] [µM]	EC50 [4] [µM]	IC50 [5] [µM]	IC50 [6] [µM]	IC50 [7] [µM]	SMILES
0.0077	0.0189	0.0255	0.0573	0.035	0.0145	0.05	CN1CCN(c2ccc3cc2OCCOCCOc2cccc(c2)-c2ccnc(n2)N3)CC1 [Compound 4]
0.0052	0.145	0.11	0.246	0.0412	0.12	0.05	CN1CCC(N2CCN(c3ccc4cc3OCCOCCOc3cccc(c3)-c3ccnc(n3)N4)CC2)CC1 [Compound 6]
0.06	0.0039	0.0047	0.0018	0.0062	0.0016	0.1	CN1CCN(c2cc3cc(c2)OCCOCCOc2cccc(c2)-c2ccnc(n2)N3)CC1 [Compound 46]
